{"source": "patent US20250163052A1", "about": "“cGAS INHIBITORS AND USES THEREOF” (Cornell University, priority 2022, published 2025)", "key": {"[1]": {"biological_target": "h-cGAS (Homo sapiens, UniProt Q8N884)", "sequence (Q8N884 whole entry)": "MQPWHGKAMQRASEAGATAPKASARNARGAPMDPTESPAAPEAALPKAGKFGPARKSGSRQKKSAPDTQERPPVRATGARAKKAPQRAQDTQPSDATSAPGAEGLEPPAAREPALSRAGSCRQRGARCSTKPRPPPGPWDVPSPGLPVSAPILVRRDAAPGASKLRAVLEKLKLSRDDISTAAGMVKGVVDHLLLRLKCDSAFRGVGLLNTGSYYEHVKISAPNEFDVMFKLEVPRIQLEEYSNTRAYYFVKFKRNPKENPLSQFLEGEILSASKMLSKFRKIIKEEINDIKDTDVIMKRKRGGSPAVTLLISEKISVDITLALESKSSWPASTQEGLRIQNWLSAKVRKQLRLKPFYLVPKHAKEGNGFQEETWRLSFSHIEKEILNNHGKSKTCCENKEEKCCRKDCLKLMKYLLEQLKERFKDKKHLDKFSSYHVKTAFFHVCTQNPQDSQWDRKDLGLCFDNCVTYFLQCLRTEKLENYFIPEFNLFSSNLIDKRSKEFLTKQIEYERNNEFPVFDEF", "test": "Cell-free human cGAS enzyme inhibition assay (ATP depletion, Kinase-Glo Max)", "type": "biochemical", "settings": "human cGAS"}, "[2]": {"biological_target": "m-cGAS (Mus musculus, UniProt Q8C6L5)", "sequence (Q8C6L5 whole entry)": "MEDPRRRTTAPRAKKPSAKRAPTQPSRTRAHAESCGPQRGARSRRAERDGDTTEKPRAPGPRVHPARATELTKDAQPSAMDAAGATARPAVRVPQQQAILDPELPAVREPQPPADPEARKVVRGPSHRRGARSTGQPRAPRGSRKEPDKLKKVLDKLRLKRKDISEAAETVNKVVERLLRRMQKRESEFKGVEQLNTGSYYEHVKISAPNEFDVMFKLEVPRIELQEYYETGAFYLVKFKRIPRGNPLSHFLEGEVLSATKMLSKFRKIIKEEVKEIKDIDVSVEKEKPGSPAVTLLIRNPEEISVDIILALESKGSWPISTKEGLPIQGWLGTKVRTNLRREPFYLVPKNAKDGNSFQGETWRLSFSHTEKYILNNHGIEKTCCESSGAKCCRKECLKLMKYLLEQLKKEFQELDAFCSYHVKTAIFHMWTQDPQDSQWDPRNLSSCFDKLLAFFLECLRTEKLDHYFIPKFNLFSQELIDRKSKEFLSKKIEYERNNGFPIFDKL", "test": "Cell-free mouse cGAS enzyme inhibition assay (ATP depletion, Kinase-Glo Max)", "type": "biochemical", "settings": "mouse cGAS"}, "[3]": {"test": "Protein binding in mouse brain homogenates", "type": "in vitro ADME"}, "[4]": {"system": "P301S mice", "test": "Immunofluorescent staining of hippocampal synapses (PSD-95, vGAT) in P301S mice", "type": "in vivo, mouse", "settings": "hippocampal CA1, 150 mg/kg diet for three months", "excerpt": "P301S transgenic mice (https://www.jax.org/strain/008169) were crossed with cGas knockout mice (https://www.jax.org/strain/026554) to generate littermate P301S cGas+/+ mice, P301S cGas+/− and littermate P301S cGas−/− mice, as well as non-transgenic littermates. Mice of both sexes were used behavioral, histological and biochemical analyses. Mice underwent behavioral testing at 7 to 8 months of age and had not been used for any other experiments. At 9 to 10 months of age, the same mice were used for pathology and RNA-seq studies. For TDI-6570 in vivo treatment, P301S and non-transgenic littermate mice at 6-7 months were used for diet experiments and were assayed for behavior and histology at 9-10 months. Mice were housed under specific pathogen-free conditions under a 12 h light-dark cycle and all mouse protocols were approved by the Institutional Animal Care and Use Committee, University of California, San Francisco.\nHemibrains from transcardially perfused mice were placed in 4% paraformaldehyde for 48 h, followed by 30% sucrose PBS for 48 h at 4° C. Sections were cut coronally at 40 μm using a freezing microtome (Leica) and placed in cryoprotective medium at −20° C. until use. 8-10 free floating sections per mouse. […] Quantification was done using ImageJ software (NIH) using percentage area based on thresholding determined using negative and positive controls. […]"}, "[5]": {"test": "Metabolic stability in mouse liver microsomes"}}, "data": [{"compound": "Cn1c2c(c3ccc(Cl)c(F)c31)CN(C(=O)CO)CC2", "note": "[TDI-6570, reference compound]", "values": [{"measurement": "IC50", "setting": "[1]", "value": 138, "unit": "nM"}, {"measurement": "IC50", "setting": "[2]", "value": 12.8, "unit": "nM"}, {"measurement": "% Recovery", "setting": "[3]", "value": 89.39, "unit": "%"}, {"measurement": "LogK", "setting": "[3]", "value": 2.38}, {"measurement": "% Remaining at 6 hr", "setting": "[3]; 6 hr", "value": 94.51, "unit": "%"}, {"measurement": "P301S-dependent excitatory synapse loss (PSD-95)", "setting": "[4]", "value": "rescued"}, {"measurement": "P301S-dependent inhibitory synapse loss (vGAT)", "setting": "[4]", "value": "rescued"}, {"measurement": "Remaining (NCF = 60 min)", "setting": "[5]; mouse liver microsomes, 60 min, no co-factor (no NADPH)", "value": 100.0, "unit": "%"}, {"measurement": "Remaining (T = 60 min)", "setting": "[5]; mouse liver microsomes, 60 min with NADPH", "value": 0.0, "unit": "%"}, {"measurement": "CLint(liver)", "setting": "[5]; mouse liver microsomes, scaled from CLint(mic)", "value": 997.5, "unit": "mL/min/kg"}, {"measurement": "CLint(mic)", "setting": "[5]; mouse, liver microsomes", "value": 251.9, "unit": "µL/min/mg"}, {"measurement": "T½", "setting": "[5]; mouse, liver microsomes", "value": 5.5, "unit": "min"}]}]}
